Patent US20230002375A1, “HYDROPYRAZINO[1,2-B]ISOQUINOLINE COMPOUNDS FOR THE TREATMENT OF AUTOIMMUNE DISEASE” (Hoffmann-La Roche Inc., priority 2019, published 2023)
pIC50: −log10 of the molar value.

Target: T1, hERG K+ channel (Homo sapiens, UniProt Q12809)
T1 construct: expressed in transfected cells; host or cells: CHO (Chinese hamster ovary) cells, CHOhERG
Assay: hERG channel inhibition assay (patch-clamp, CHOhERG cells)
Format: cell-based
Conditions: whole-cell patch-clamp; for IC20: human, CHO cells stably expressing hERG
Protocol: hERG Channel Inhibition Assay
The hERG K^+ channels were cloned in humans and stably expressed in a CHO (Chinese hamster ovary) cell line. CHOhERG cells were used for patch-clamp (voltage-clamp, whole-cell) experiments. Cells were stimulated by a voltage pattern to activate hERG channels and conduct IKhERG Currents (rapid delayed outward rectifier potassium current of the hERG channel). After the cells were stabilized for a few minutes, the amplitude and kinetics of IKhERG were recorded at a stimulation frequency of 0.1 Hz (6 bpm). Thereafter, the test compound was added to the preparation at increasing concentrations. For each concentration, an attempt was made to reach a steady-state effect, usually, this was achieved within 3-10 min at which time the next highest concentration was applied. The amplitude and kinetics of IKhERG are recorded in each concentration of the drug which were compared to the control values (taken as 100%). (references: Redfern W S, Carlsson L, Davis A S, Lynch W G, MacKenzie I, Palethorpe S, Siegl P K, Strang I, Sullivan A T, Wallis R, Camm A J, Hammond T G. 2003; Relationships between preclinical cardiac electrophysiology, clinical QT interval prolongation and torsade de pointes for a broad range of drugs: evidence for a provisional safety margin in drug development. Cardiovasc. Res. 58:32-45, Sanguinetti M C, Tristani-Firouzi M. 2006; hERG potassium channels and cardiac arrhythmia. Nature 440:463-469, Webster R, Leishman D, Walker D. 2002; Towards a drug concentration effect relationship for QT prolongation and torsades de pointes. Curr. Opin. Drug Discov. Devel. 5:116-26).

T1 sequence (Q12809 whole entry): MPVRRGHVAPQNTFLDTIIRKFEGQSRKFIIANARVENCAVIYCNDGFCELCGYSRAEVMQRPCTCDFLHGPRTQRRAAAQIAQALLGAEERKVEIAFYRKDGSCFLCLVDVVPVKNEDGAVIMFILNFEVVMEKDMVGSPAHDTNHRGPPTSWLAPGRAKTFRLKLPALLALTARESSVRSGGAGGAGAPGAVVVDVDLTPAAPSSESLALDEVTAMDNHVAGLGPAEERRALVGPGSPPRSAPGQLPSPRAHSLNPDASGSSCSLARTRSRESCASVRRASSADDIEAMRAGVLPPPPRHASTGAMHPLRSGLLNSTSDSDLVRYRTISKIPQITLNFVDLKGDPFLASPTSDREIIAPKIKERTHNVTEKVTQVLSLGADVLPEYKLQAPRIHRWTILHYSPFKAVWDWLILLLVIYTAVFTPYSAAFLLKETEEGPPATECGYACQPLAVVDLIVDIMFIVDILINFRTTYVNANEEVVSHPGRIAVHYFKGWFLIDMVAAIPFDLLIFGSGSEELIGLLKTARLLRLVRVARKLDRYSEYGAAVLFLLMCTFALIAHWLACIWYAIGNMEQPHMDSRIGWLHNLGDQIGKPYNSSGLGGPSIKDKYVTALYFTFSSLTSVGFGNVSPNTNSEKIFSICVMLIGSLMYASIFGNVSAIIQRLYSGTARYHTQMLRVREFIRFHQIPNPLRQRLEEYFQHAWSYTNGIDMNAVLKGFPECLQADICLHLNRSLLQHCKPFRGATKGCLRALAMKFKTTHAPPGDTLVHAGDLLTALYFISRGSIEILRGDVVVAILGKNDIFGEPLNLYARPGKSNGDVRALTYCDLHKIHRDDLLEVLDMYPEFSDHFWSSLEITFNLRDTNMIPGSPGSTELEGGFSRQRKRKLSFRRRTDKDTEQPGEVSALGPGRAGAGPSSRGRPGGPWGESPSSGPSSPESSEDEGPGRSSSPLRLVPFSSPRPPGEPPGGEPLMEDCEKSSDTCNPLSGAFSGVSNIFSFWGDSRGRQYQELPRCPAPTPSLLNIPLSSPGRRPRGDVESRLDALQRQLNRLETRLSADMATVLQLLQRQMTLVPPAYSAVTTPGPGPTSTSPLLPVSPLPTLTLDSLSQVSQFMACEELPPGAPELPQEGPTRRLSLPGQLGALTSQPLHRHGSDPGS

SMILES	IC20 [µM]	pIC50
C[C@@H]1CN(c2ccc(C#N)c3ncccc23)C[C@@H]2Cc3cc(N4C[C@@H]5CNCCN5C4=O)ccc3CN21 (single isomer, unassigned) [Example 17A]	> 10	< 4.70
C[C@@H]1CN(c2ccc(C#N)c3ncccc23)C[C@@H]2Cc3cc(N[C@@H]4CNC[C@@H]4F)ccc3CN21 [Example 6, 5-[(4R,11aS)-4-methyl-9-[[(3R,4S)-4-fluoropyrrolidin-3-yl]amino]-1,3,4,6,11,11a-hexahydropyrazino[1,2-b]isoquinolin-2-yl]quinoline-8-carbonitrile]	> 10	< 4.70
C[C@@H]1CN(c2ccc(C#N)c3ncccc23)C[C@@H]2Cc3cc(OC[C@@H]4CCN4)ccc3CN21 [Example 12, 5-[(4R,11aS)-9-[[(2S)-azetidin-2-yl]methoxy]-4-methyl-1,3,4,6,11,11a-hexahydropyrazino[1,2-b]isoquinolin-2-yl]quinoline-8-carbonitrile]	8.2	< 4.70
